In patent US9744236B2, “Photolabile compounds” (The Trustees of Columbia University in the City of New York, priority 2009, dated 2017):

What was measured:
[1] = Behaviour of modified rhodamine ligand at physiological pH; format: physicochemical
Text: Given these properties, the chemical structure of rhodamine B was modified by adding a “sticky tail” in order to coordinate the fluorescent molecule to the metal center. In a first attempt to synthesize a modified rhodamine bearing a coordinating group, carboxylate was amidated with aminopropionitrile, using the Adamczyk procedure (Adamczyk, M. J. Bioorg. Med. Chem. Lett. 2000, 10: 1539-1541). The obtained compound is RhodB-APN, indicated in scheme 1B. […] Rhodamine 6G can be modified similarly to the rhodamine B, described above.

[2] = in aqueous solutions; cited from earlier work
[3] = Cyclic voltammetry, redox potential; format: physicochemical; settings: acetonitrile, vs. NHE
Method: UV-vis spectra in water were obtained with an HP 8453 diode array spectrophotometer. RMN ^1H spectra were obtained using a Bruker 500 MHz equipment. CV measurements were performed with a PAR 273A potentiostat. Irradiation was effected by means of a pulsed Xe lamp, (pulse energy ˜0.5 J), with a low-pass filter at 480 nm. Irradiation using a 473 nm DPSS laser gave similar results.
(See, e.g., E. S. Dodsworth et al., 1986, Chem. Phys. Lett., 124:152-158). The photoactivity of these compounds has been explained in terms of a reaction pathway that involves the transition between the MLCT state to a lower-energy d-d state, which promotes ligand release. There is a direct correspondence between the energy of the MLCT transition and the quantum yield of the photoreaction. For [Ru(bpy)2(4AP)CH3CN]^2+, the photoreaction yield is about φPR=0.4. Since [Ru(bpy)2(4AP)2]Cl2 presents a red-shifted band, a lower photoreaction yield is expected. An estimate based on early experiments leads to an estimate of φPR≅0.02 at 473 nm.
Its aqueous solutions present a strong metal to ligand charge-transfer band (MLCT band) at 450 nm, characteristic of this family of Ru polypyridines.

[4] = 1H-NMR in D2O, isotopic exchange / inertness; format: physicochemical; settings: 2 months in D2O at room temperature
Text: The aliphatic region corresponding to the glutamate moiety is depicted in the upper trace of FIG. 18, where —NH2 protons appear at 4.50, 4.12, 4.00 and 3.57 ppm. […] This behavior differs from that of free glutamate which, under the same conditions, exchanges rapidly D+ for H+.

[5] = Flash photolysis, uncaging time; format: physicochemical; settings: basic aqueous solution, 532 nm, 10 ns pulse
Method: In order to estimate the uncaging time, a flash photolysis experiment was performed on a basic aqueous solution of [Ru(bpy)2(PMe3)Glu] using the second harmonic of a Nd-YAGlaser (532 nm, 10 ns pulse). The photocleavage occurs within the first 50 ns, being the fastest reported caged compound, to our knowledge. The fact that a tens of nanoseconds are required to complete the glutamate uncaging reaction is compatible with the observation that the excited state lifetime measured for a similar compound containing pyridine instead of glutamate is in the range of 10-100 ns.

[6] = Photorelease of glutamate, UV-Vis during 450 nm LED irradiation; format: physicochemical
Method: As the photoreaction proceeds, the generation of the aquo complex was recorded to reach completion in about 4 minutes. The presence of two isosbestic points as well as a factor analysis performed on the spectra indicate that just two colored species are present in the solution, according to what is expected in a single photoaquation process. The spectrum of the photoproduct was found identical to that of the complex [Ru(bpy)2(PMe3)(H2O)]2^+, which can be synthesized by refluxing the chloro complex in water. At pH=11 a similar behavior was observed, although in this case the product is the hydroxo complex [Ru(bpy)2(PMe3)(OH)]^+.
The irradiance of the light source was calibrated using the known efficiency of the photolysis of [Ru(bpy)(Py)2]^2+. The amount of photoreleased glutamate was fitted using a two-parameter single-exponential function: y=a[1−exp(−bx)] and the quantum yield (φPC) was obtained as a•b, adopting a value of 0.13 at pH=7 and 0.10 at pH=11.

[7] = test system: living neocortical pyramidal neurons in mouse brain slices; experiment: Biocompatibility test on brain slices (two-photon microscopy, whole-cell patch recordings); format: cell-based; settings: 350 μM, 1 hour of incubation
Method: Biocompatibility tests were performed to evaluate the potential toxicity of the complex. 350 μM [Ru(bpy)2(PMe3)Glu], a concentration used for two-photon uncaging experiments, was incubated with living neocortical pyramidal neurons in mouse brain slices, and carefully monitored the morphology and electrophysiological properties of the neurons using two-photon microscopy and whole-cell patch recordings.

Retzius cells = experiment: Injection of caged fluorescent probe into living neurons; format: cell-based, Hirudo medicinalis; settings: short-term (˜2 h) experiments
Method: Microscopy of leech (Hirudo medicinalis) ganglia was performed in a custom-made setup for photoelectrophisiology equipped with a micromanipulator used to impale the neuron body with the ˜1 μm tip diameter capillaries, and a CCD webcam as a registering device. An isolated leech ganglion from a segment between 7 and 14 was pinned down in a sylgard-coated, 35 mm Petri dish. Retzius cells were identified by their position, size, and firing behavior. Intracellular recordings were obtained with ˜20 MΩ sharp capillary microelectrodes, a Neuroprobe 1600 (A-M Systems) amplifier and a A/D signal acquisition board at 1 kHz sampling rate and custom-made software. For iontophoretical injection of the dye the microelectrode was filled with recording solution to which 1 mM caged fluorescent dye (chloride form) was added. Square, biphasic pulses of 1 nA, 2 Hz were applied for less that 5 min.
This example provides an activatable fluorescent probe with surprising sensitivity in the visible light region. It increases its intrinsic fluorescence up to 6-fold after blue light irradiation. […] The probe was used to image the laminar flow inside a thin spectrophotometric flow cell and to visualize the parabolic-shaped flow in a FIA capillary.

[8] = Fluorescence emission quantum yield before and after irradiation; format: physicochemical; settings: after blue light (473 nm) irradiation
Text: All reagents were purchased from Sigma-Aldrich and used as received. Ru(bpy)2Cl2 was synthesized according to the literature using water as solvent (Viala, C.; Coudret, C. Inorg. Chim. Acta 2006, 359: 984-989). UV-vis spectra were taken with a HP8453 diode-array spectrometer. NMR spectra were obtained using a 500 MHz Bruker AM-500. Fluorescence emission measurements were made with a PTI Quantamaster spectrofluorometer, corrected for the instruments response function. Rhodamine B was used as fluorescence standard of emission quantum yield (φ=0.31 in aqueous solutions). Quantum yield of the complex was obtained directly from the ratio of the spectral areas, which present the same shape.
FIG. 20 depicts the emission spectra of the complex during irradiation. The maximum and the shape of the initial emission spectrum is the same as that of the free ligand RhodB-MAPN but the emission quantum yield is much lower, around pt=0.04. Quantum yields are easily calculated integrating the spectral areas. After irradiation with a 473 nm laser, RhodB-MAPN is released and the solution increases its fluorescence up to 6 fold, to φt=0.24.

**Q.** For `CCN(CC)c1ccc2c(-c3ccccc3C(=O)NCCC#N)c3ccc(=[N+](CC)CC)cc-3oc2c1` [RhodB-APN], which “stability of fluorescent form” value [1] is on record?
**A.** undergoes isomerization to the cyclic spirolactame form

**Q.** For `CCN(CC)c1ccc2c(-c3ccccc3C(=O)O)c3ccc(=[N+](CC)CC)cc-3oc2c1.[Cl-]` [Rhodamine B], which “emission quantum yield (fluorescence standard)” value [2] is on record?
**A.** 0.31

**Q.** With `CP(C)C.F[P-](F)(F)(F)(F)F.F[P-](F)(F)(F)(F)F.NC(CCC(=O)O)C(=O)O.[Ru+2].c1ccc(-c2ccccn2)nc1.c1ccc(-c2ccccn2)nc1` [[Ru(bpy)2(PMe3)GlutH2](PF6)2] as the molecule, how does the “redox process, Ru(III)/Ru(II) couple of the original complex” value [3] read?
**A.** 0.98 V

**Q.** And the “isotopic exchange of coordinated -NH2 (inertness)” value [4]?
**A.** no exchange is seen

**Q.** And the photocleavage time [5]?
**A.** ≤ 50 ns

**Q.** And the “quantum yield (φPC) of glutamate photorelease” value ([6]; pH=7)?
**A.** 0.13

**Q.** What about the “time for photoreaction to reach completion” value ([6]; pH=7, 450±20 nm LED) of the same molecule?
**A.** about 4 minutes

**Q.** What about the “quantum yield (φPC) of glutamate photorelease” value ([6]; pH=11) of the same molecule?
**A.** 0.10

**Q.** And the “effects on morphology and electrophysiological properties of neurons” value [7]?
**A.** no detectable effects were observed

**Q.** What does the source list for `CCN(CC)c1ccc2c(-c3ccccc3C(=O)N(C)CCC#N)c3ccc(=[N+](CC)CC)cc-3oc2c1.[Cl-].[Cl][Ru+].c1ccc(-c2ccccn2)nc1.c1ccc(-c2ccccn2)nc1` [[Ru(bpy)2(RhodB-MAPN)Cl]Cl]?
**A.** acute toxicity in injected living cells (Retzius cells): no sign of acute toxicity; increase of fluorescence [8]: up to 6 fold
